Results from patent publication US10351613B2, “Polypeptide for inhibition of tumor” (G-Bio Pharma Tech Co., Ltd., priority 2015, dated 2019).
Values after ≈ are worked out from the molar mass of the structure shown. Residues, ends and D or L forms follow the SMILES beside them.

What was measured:
[1] = system: CK-MES-1 (lung squamous cell carcinoma); experiment: MTT in vitro inhibition of CK-MES-1; type: cell-based
Description: (§1) Inhibition of cell growth was detected by a MTT method, which is based on the principle that succinate dehydrogenase in the mitochondria of the live cells could reduce the exogenous MTT (3-(4,5-dimethyl-2-thiazolyl)-2,5-diphenyl-tetrazolium bromide) to a […] Formazan which is a blue-violet crystal, and precipitates in the cells, while the death cells could not reduce MTT. DMSO could dissolve Formazan in the cells. Absorbance value of the solution was determined at 490/570 nm by microplate reader, which could indirectly indicate the amount of the live cells. The amount of the crystal from MTT is proportional to the amount of the cells within a certain range of cell number. The supernate from the HUVEC or tumor cells in exponential phase was removed and the cells were washed by PBS once. 1 ml 0.25% trypsin (4° C.) was added for digestion at 37° C. for 2 min. Then the supernate was added for neutralization and the cells were dispersed to form a suspension and the suspension was centrifuged at 1000 rpm for 3 min. The supernate was removed and 5 ml culture mediums were added for resuspension. Cells were inoculated in a 48-well plate by 500 ul/well at the concentration of 3×10^4/ml and then incubated under 5% CO2, 37° C. for 24 hours. The supernate was removed and a culture medium containing polypeptide (Zn^2+ in the culture medium was present at the concentration of 17.39 μmol/L) was added for further incubation for 48 hours. Supernate in each well was carefully removed. The well was gently washed by PBS once in an amount of 450 μl/well. 450 μl MTT culture mediums were added into each well for further cultivation for 4 hours. The supernate was carefully discarded. DMSO was added in an amount of 450 μl/well and then the plate was placed in a shaking bed for oscillation for 10 min in dark. 150 μl supernates were transferred to a 96-well ELISA plate and absorbance value of each well was detected at 490 nm and 570 nm by the microplate reader.
(§2) P2 (SEQ ID NO:2) and P2T2S18 (SEQ ID NO:6) were tested for their in vitro inhibition on SMMC7221, SPC-A-1, A549, LS174T, BEL7402, CK-MES-1 and BxPC-3 at a polypeptide concentration of 1 mg/ml according to the method described in Example 3. Results are shown in FIG. 9 and the following Table. […] All IC50 concentrations for P2T2S18 are less than 1/10 IC50 concentration of P2.

[2] = system: SPC-A-1 (lung carcinoma); type: cell-based
Description: as §1, §2

[3] = system: LS174T (Colon cancer); type: cell-based
Description: as §1, §2

[4] = system: A549 (lung carcinoma); experiment: MTT in vitro inhibition of A549; type: cell-based
Description: as §1, §2

[5] = system: SMMC7721 (Liver cancer); experiment: MTT in vitro inhibition of SMMC7721; type: cell-based
Description: as §1, §2

[6] = system: BEL7402 (Liver cancer); experiment: MTT in vitro inhibition of BEL7402; type: cell-based
Description: as §1, §2

[7] = system: Human Umbilical Vein Endothelial Cell (HUVEC); type: cell-based
Description: 20 cm umbilical cord adjacent to fetus was taken, cleaned by washing, ligated at both ends, placed into 150 ml preservation solutions for umbilical cord, and stored in a 4° C. refrigerator for digestion for 6 hours. The umbilical cord was inspected to remove the damaged portion. The umbilical vein was thoroughly cleaned by washing and then 10 ml collagenase solution was injected. Then the umbilical vein was transferred to a 37° C. incubator for digestion for 15 minutes. The umbilical cord was removed and the digested solution was recovered. The digested solution was washed by PBS and centrifuged. After centrifugation, the cells were culture by re-suspension.
as §1

[8] = system: Human liver cancer BEL7404 tumor model; type: in vivo; details: BEL7404, day 21; polypeptides 15 mg/kg sc 2 times per day 21 days; endostatin/endostar 50 mg/kg sc; CTX 30 mg/kg ip 7 days
Description: In vitro cultured tumor cells in exponential phase and in good state were formulated to a 100 μl cell suspension containing 5×10^6 tumor cells. The suspension was subcutaneously inoculated to nude mice. Well-grown solid tumors were obtained 15 days later and cut into uniform pieces of about 3 mm under sterile condition. Each nude mouse was inoculated by one piece through a trocar. Mice were re-grouped according the tumor size 10-14 days after inoculation and animals having too large and too small tumor were excluded from the test. The average tumor volume for each group was basically identical. Test drugs were administered to each group according to the experimental protocol. The major axis (a) and minor axis (b) of the tumor were measured twice a week. Animals were sacrificed at the end of the test. The tumor was taken out, weighed and photos were taken. Tumor volume (TV)=½×a×b^2; Relative tumor volume (RTV)=Vt/Vo, wherein Vo is the tumor volume measured before grouping (one day before administration of the test drug), and Vt is the tumor volume measured at each time. Tumor inhibition rate (%)=(1−T/C)×100%, wherein T is the average tumor volume of the treatment group and C is the average tumor volume of the negative control group.
The amino acid sequence of recombination endostatin (“endostatin”) was set forth in SEQ ID NO: 1, and the amino acid sequence of the marketed drug Endostar (“endostar”) was set forth in SEQ ID NO: 10. Human liver cancer BEL7404 tumor model was constructed according to the method described in Example 10. The test contained 6 groups, with 6 animals in each group, except for the negative control group which contained 9 animals. The molar dose of the polypeptides was basically equal to the molar dose of endostatin. The results are shown in FIGS. 11a and 11b and the following Table.

[9] = system: lung cancer cell line SPC-A-1; experiment: In vitro death of SPC-A-1 tumor cell observed under optical microscope; type: cell-based; details: SPC-A-1, 2.5 mg/ml
Description: Polypeptides were tested for their effect in inducing cell death of lung cancer cell line SPC-A-1 at a polypeptide concentration of 2.5 mg/ml according to the method described in Example 3. Cells were observed under an optical microscope over 24 hours and photos were taken. P2 exerts its function 4 hours after being added into the culture medium. […] On the contrary, they extremely swelled. 4 hours later cells further swelled and began to disintegrate at 8 hours. […] The manner of P2T2S18 caused cell death is very surprising. Currently, it is unable to determine what manner this kind of cell death belongs to. No report is found in papers as well. However, this mode of cell death is obviously different from that caused by P2. Together with the results in Example 7, it can conclude that P2T2S18 not only has a biological activity obviously higher than P2, but also has a manner causing cell death obviously different from that of P2.

[10] = system: BxPC-3 (pancreatic cancer); experiment: MTT in vitro inhibition of BxPC-3; type: cell-based
Description: as §1, §2

[11] = system: tumor cell HepG2; type: cell-based
Description: as §1

CC[C@H](C)[C@H](NC(=O)CNC(=O)[C@H](CCCNC(=N)N)NC(=O)[C@H](CCSC)NC(=O)CNC(=O)CNC(=O)[C@H](CO)NC(=O)[C@H](CC(C)C)NC(=O)[C@@H]1CCCN1C(=O)[C@H](CO)NC(=O)[C@H](CC(N)=O)NC(=O)[C@H](CC(C)C)NC(=O)[C@H](C)NC(=O)[C@@H](NC(=O)[C@H](CC(C)C)NC(=O)[C@H](Cc1c[nH]cn1)NC(=O)[C@H](CC(C)C)NC(=O)[C@@H](NC(=O)[C@@H]1CCCN1C(=O)[C@H](CCC(N)=O)NC(=O)[C@H](Cc1ccccc1)NC(=O)[C@H](CC(=O)O)NC(=O)[C@H](CCCNC(=N)N)NC(=O)[C@H](Cc1c[nH]cn1)NC(=O)[C@H](CO)NC(=O)[C@H](Cc1c[nH]cn1)NC(C)=O)C(C)C)C(C)C)C(=O)N[C@@H](CCCNC(=N)N)C(=O)NCC(=O)N[C@@H](C)C(=O)N[C@@H](CC(=O)O)C(N)=O [Polypeptide P2] (Ac-HSHRDFQPVLHLVALNSPLSGGMRGIRGAD-NH2)
IC50 ([1]; CK-MES-1): 863.1 µg/mL (≈ 263 µM) | Cell Survival (%) at a polypeptide concentration of 1 mg/ml ([1]; CK-MES-1, 1 mg/ml): 42% | IC50 ([2]; SPC-A-1): 1111.8 µg/mL (≈ 339 µM) | Cell Survival (%) at a polypeptide concentration of 1 mg/ml ([2]; SPC-A-1, 1 mg/ml): 48% | IC50 [3]: 1683.8 µg/mL (≈ 513 µM) | Cell Survival (%) at a polypeptide concentration of 1 mg/ml ([3]; 1 mg/ml): 95% | IC50 ([4]; A549): 1312.2 µg/mL (≈ 400 µM) | Cell Survival (%) at a polypeptide concentration of 1 mg/ml ([4]; A549, 1 mg/ml): 57% | IC50 ([5]; SMMC7721): 1030.2 µg/mL (≈ 314 µM) | Cell Survival (%) at a polypeptide concentration of 1 mg/ml ([5]; SMMC7721, 1 mg/ml): 42% | IC50 ([6]; BEL7402): 732.9 µg/mL (≈ 223 µM) | Cell Survival (%) at a polypeptide concentration of 1 mg/ml ([6]; BEL7402, 1 mg/ml): 20% | IC50 (ug/ml) HUVEC [7]: 733.4 µg/mL (≈ 224 µM) | Cell Survival (%), 1 mg/ml of polypeptide, HUVEC ([7]; 1 mg/ml): 25% | Tumor inhibitor rate (%) [8]: 33.7% | time after being added into the culture medium at which the polypeptide acts on the cells [9]: 4 h | state of cells at 24 hours ([9]; 24 hours): basically died | IC50 ([10]; BxPC-3): 860.9 µg/mL (≈ 262 µM) | Cell Survival (%) at a polypeptide concentration of 1 mg/ml ([10]; BxPC-3, 1 mg/ml): 40% | IC50 (ug/ml) HepG2 [11]: 1033.4 µg/mL (≈ 315 µM) | Cell Survival (%), 1 mg/ml of polypeptide, HepG2 [11]; 1: 41%
